Usually viability stands for a read-out of living cells in per cent, often relative to untreated cells.

The nature of this data set: in vitro. The settings on record: human, hela cells, % viability.

As to `COc1ccc(CCNC(=O)c2cnc3scc(C)n3c2=O)cc1` [CBK287291], the viability at 28.5 h, 10 µM turned out to be 103%.

As for `COc1ccccc1CNC(=O)c1cnc2scc(C)n2c1=O` [CBK287293], the viability at 28.5 h, 10 µM is 102%.

On to `Cc1ccc(-n2c(=O)[nH]c3c(C(N)=O)nc(CC(C)C)nc32)cc1` [CBK287294], for which the viability at 28.5 h, 10 µM stood at 102%.

As to `COc1cc(C(=O)Nc2nc3c(s2)CC(C)CC3)cc(OC)c1OC` (stereo not drawn) [CBK287299], the viability at 28.5 h, 10 µM amounted to 107%.

Consider `Cc1cccc2sc(NC(=O)c3ccccc3)nc12` [CBK287300], for which the viability at 28.5 h, 10 µM was 102%.

Take `COc1cc(C(=O)Nc2nc3c(C)cccc3s2)cc(OC)c1OC` [CBK287302]: the viability at 28.5 h, 10 µM amounted to 98.5%.

`COc1ccccc1C(=O)Nc1nc2ccc(NC(C)=O)cc2s1` [CBK287303]: the viability at 28.5 h, 10 µM was found to be 88.3%.

`CC(=O)Nc1ccc2nc(NC(=O)c3ccc(C)cc3)sc2c1` [CBK287304]: the viability at 28.5 h, 10 µM was 103%.

As to `CC(=O)Nc1ccc2nc(NC(=O)c3ccc(C#N)cc3)sc2c1` [CBK287309], the viability at 28.5 h, 10 µM turned out to be 92.4%.

With `CC(=O)c1sc(NC(=O)c2ccccc2)nc1-c1ccccc1` [CBK287315], the viability at 28.5 h, 10 µM was found to be 87.8%.

On to `COc1ccc2nc(NC(=O)c3ccc(Br)s3)sc2c1` [CBK287316], for which the viability at 28.5 h, 10 µM was determined as 92.8%.

Turning to `CC1(C)CC(=O)c2sc(NC(=O)Nc3ccccc3)nc2C1` [CBK287319], the viability at 28.5 h, 10 µM turned out to be 104%.

As for `N#Cc1ccc(-c2csc(NC(=O)c3ccc(Cl)s3)n2)cc1` [CBK287321], the viability at 28.5 h, 10 µM was determined as 100%.

Turning to `Cc1cccc(C(=O)Nc2nc3ccc(S(C)(=O)=O)cc3s2)c1` [CBK287323], the viability at 28.5 h, 10 µM was determined as 89.8%.

In the case of `CCC(=O)Nc1sc2c(c1-c1nc3ccccc3s1)CCCC2` [CBK287324], the viability at 28.5 h, 10 µM was 91.7%.

For `COc1ccc(C(=O)Nc2nc(-c3ccc(OC)cc3)cs2)cc1` [CBK287325], the viability at 28.5 h, 10 µM came out at 99.2%.

For the compound `O=C(Nc1nc2c(s1)CCCC2)c1ccccc1` [CBK287326], the viability at 28.5 h, 10 µM amounted to 82.9%.

As for `O=C(Nc1nc(-c2cccs2)cs1)c1ccc(F)cc1` [CBK287327], the viability at 28.5 h, 10 µM stood at 86.7%.

For `CC1(C)CC(=O)c2sc(NC(=O)C3CC3)nc2C1` [CBK287329], the viability at 28.5 h, 10 µM was 104%.

In the case of `O=C(Nc1nc2c(s1)CCc1ccccc1-2)C1CC1` [CBK287330], the viability at 28.5 h, 10 µM stood at 85.3%.

For `Cc1ccccc1-c1nnc(NC(=O)c2ccc(N3C(=O)CCC3=O)cc2)s1` [CBK287332], the viability at 28.5 h, 10 µM turned out to be 85.9%.

Take `O=C(Nc1nc(-c2ccccc2)cs1)c1ccc(N2C(=O)CCC2=O)cc1` [CBK287333]: the viability at 28.5 h, 10 µM stood at 97.7%.

Take `Cc1ccc2nc(NC(=O)COc3ccccc3)sc2c1` [CBK287335]: the viability at 28.5 h, 10 µM worked out at 91%.

Turning to `Cc1ccccc1C(=O)Nc1nc2ccc(S(C)(=O)=O)cc2s1` [CBK287337], the viability at 28.5 h, 10 µM stood at 95.1%.

As to `COc1ccc(C(=O)Nc2nc3ccc(S(C)(=O)=O)cc3s2)cc1` [CBK287338], the viability at 28.5 h, 10 µM is 94.3%.

Take `CS(=O)(=O)c1ccc2nc(NC(=O)Cc3ccccc3)sc2c1` [CBK287339]: the viability at 28.5 h, 10 µM was found to be 89.8%.

As to `CS(=O)(=O)c1ccc2nc(NC(=O)c3ccco3)sc2c1` [CBK287341], the viability at 28.5 h, 10 µM turned out to be 95.4%.

For the compound `COc1cccc(C(=O)Nc2nc3ccc(F)cc3s2)c1` [CBK287342], the viability at 28.5 h, 10 µM stood at 86.9%.

`C=CCSc1nc2sc3c(c2c(=O)[nH]1)CCCC3` [CBK287344]: the viability at 28.5 h, 10 µM was determined as 110%.

`Cc1ccc(-c2csc(NC(=O)CN3C(=O)CCC3=O)n2)cc1` [CBK287346]: the viability at 28.5 h, 10 µM amounted to 98.3%.

Consider `CCc1ccc(-c2csc(NC(=O)CN3C(=O)CCC3=O)n2)cc1` [CBK287347], for which the viability at 28.5 h, 10 µM was 90.3%.

As for `Cc1ccc(-c2csc(NC(=O)CN3C(=O)CCC3=O)n2)c(C)c1` [CBK287348], the viability at 28.5 h, 10 µM was determined as 86.7%.

On to `Cc1cc(NC(=O)c2cccc(N3C(=O)CCC3=O)c2)no1` [CBK287352], for which the viability at 28.5 h, 10 µM is 112%.

With `O=C(Nc1ccccn1)c1cc2ccccc2oc1=O` [CBK287354], the viability at 28.5 h, 10 µM came to 91.7%.

In the case of `Clc1ccc(Nc2ncnc3c2cnn3-c2ccc(Cl)cc2)cc1` [CBK287356], the viability at 28.5 h, 10 µM is 86.1%.

Consider `c1ccc(-n2ncc3c(N4CCCC4)ncnc32)cc1` [CBK287357], for which the viability at 28.5 h, 10 µM was determined as 86.6%.

Consider `COc1ccccc1-c1nnc(NC(=O)Cc2cccs2)s1` [CBK287361], for which the viability at 28.5 h, 10 µM was 93.5%.

For the compound `CC(=O)N1CCN(c2nc3ccccc3s2)CC1` [CBK287362], the viability at 28.5 h, 10 µM came to 95%.

On to `CC(=O)c1ccc(C(=O)Nc2nc3c(s2)COc2ccccc2-3)cc1` [CBK287363], for which the viability at 28.5 h, 10 µM was determined as 81.9%.

As for `Cc1cccc2sc(NC(=O)C3COc4ccccc4O3)nc12` (stereo not drawn) [CBK287367], the viability at 28.5 h, 10 µM amounted to 113%.

For `NC(=O)c1c(NC(=O)c2ccc3ncsc3c2)sc2c1CCCC2` [CBK287369], the viability at 28.5 h, 10 µM turned out to be 94.4%.

As for `O=C(Nc1nc(-c2ccncc2)cs1)C1COc2ccccc2O1` (stereo not drawn) [CBK287370], the viability at 28.5 h, 10 µM was found to be 96.7%.

For the compound `Cc1ccccc1NC(=O)c1cnc2n(c1=O)CCS2` [CBK287374], the viability at 28.5 h, 10 µM came to 110%.

Consider `Cc1ccc(NC(=O)c2cnc3n(c2=O)CCS3)cc1` [CBK287376], for which the viability at 28.5 h, 10 µM stood at 108%.

On to `O=C(Nc1cccc2c1CCCC2)c1cnc2n(c1=O)CCS2` [CBK287379], for which the viability at 28.5 h, 10 µM came out at 105%.

For `O=C(Nc1ccc(Cl)c(Cl)c1)c1cnc2n(c1=O)CCS2` [CBK287381], the viability at 28.5 h, 10 µM amounted to 108%.

Regarding `CCN(C(=O)c1cnc2n(c1=O)CCS2)c1ccccc1` [CBK287384], the viability at 28.5 h, 10 µM turned out to be 103%.

As to `Fc1ccc(N2CCN(c3ncnc4[nH]cnc34)CC2)cc1` [CBK287387], the viability at 28.5 h, 10 µM amounted to 89.8%.

Turning to `Cc1cc(NC(=O)CSc2nnc(-c3ccccc3)o2)no1` [CBK287389], the viability at 28.5 h, 10 µM is 96.2%.

Regarding `COc1ccccc1-c1nnc(SCC(=O)Nc2nccs2)o1` [CBK287390], the viability at 28.5 h, 10 µM turned out to be 107%.

In the case of `COc1cccc(-c2nnc(SCC(=O)Nc3cc(C)on3)o2)c1` [CBK287391], the viability at 28.5 h, 10 µM turned out to be 89.9%.

As to `CCc1nnc(NC(=O)CSc2ncnc3c2oc2ccccc23)s1` [CBK287392], the viability at 28.5 h, 10 µM is 90.7%.

As to `O=C(CSc1ncnc2c1oc1ccccc12)Nc1ccccc1F` [CBK287393], the viability at 28.5 h, 10 µM worked out at 87.3%.

On to `Cc1cc(C)cc(NC(=O)CSc2ncnc3c2oc2ccccc23)c1` [CBK287394], for which the viability at 28.5 h, 10 µM was 90.5%.

For `c1ccc(CSc2ncnc3c2oc2ccccc23)cc1` [CBK287398], the viability at 28.5 h, 10 µM is 103%.

For the compound `O=C(CSc1nccn1-c1ccccc1)Nc1ccc(F)cc1` [CBK287399], the viability at 28.5 h, 10 µM is 76.1%.

In the case of `COc1ccc(OC)c2sc(NC(=O)c3ccc(Br)s3)nc12` [CBK287400], the viability at 28.5 h, 10 µM was determined as 93.7%.

Turning to `O=C(Nc1nnc(-c2ccc3c(c2)OCCO3)o1)c1ccc2c(c1)OCCO2` [CBK287403], the viability at 28.5 h, 10 µM is 84.5%.

For `CCC(=O)Nc1nnc(-c2ccc3c(c2)OCCO3)o1` [CBK287404], the viability at 28.5 h, 10 µM was 92.6%.

In the case of `O=C(Nc1nnc(C2=COCCO2)o1)c1ccc(-c2ccccc2)cc1` [CBK287407], the viability at 28.5 h, 10 µM stood at 84.5%.

Turning to `COc1ccc(C(=O)Nc2nnc(C3=COCCO3)o2)cc1` [CBK287409], the viability at 28.5 h, 10 µM was found to be 93.9%.

Turning to `N#Cc1ccc(C(=O)Nc2nnc(C3=COCCO3)o2)cc1` [CBK287411], the viability at 28.5 h, 10 µM is 83.3%.

As for `CN(C)c1ccc(C(=O)Nc2nnc(C3=COCCO3)o2)cc1` [CBK287415], the viability at 28.5 h, 10 µM worked out at 98.8%.

For the compound `O=C(Cc1ccccc1)Nc1nnc(C2=COCCO2)o1` [CBK287416], the viability at 28.5 h, 10 µM turned out to be 92.2%.

`O=C(Nc1nnc(C2=COCCO2)o1)c1cccc(Cl)c1` [CBK287417]: the viability at 28.5 h, 10 µM came out at 83.5%.

As to `O=C(Nc1nnc(-c2ccco2)o1)c1ccc(N2C(=O)CCC2=O)cc1` [CBK287423], the viability at 28.5 h, 10 µM stood at 90.7%.

On to `O=C(Nc1nnc(-c2ccco2)o1)c1ccc2c(c1)CCCC2` [CBK287425], for which the viability at 28.5 h, 10 µM came out at 79.1%.

With `O=C(CN1C(=O)CCC1=O)Nc1nnc(-c2ccc3c(c2)CCCC3)o1` [CBK287427], the viability at 28.5 h, 10 µM was found to be 80.2%.

On to `O=C(Nc1nnc(-c2ccccn2)o1)c1cc(Cl)ccc1Cl` [CBK287429], for which the viability at 28.5 h, 10 µM was 96.9%.

Regarding `O=C(Nc1nnc(-c2ccncc2)o1)c1ccc(F)cc1` [CBK287431], the viability at 28.5 h, 10 µM stood at 80%.

As for `O=C(Nc1nnc(-c2ccncc2)o1)c1ccc(Cl)cc1Cl` [CBK287433], the viability at 28.5 h, 10 µM was determined as 82.3%.

On to `Cc1cc(NC(=O)COc2ccccc2)nc2c1c(=O)oc1ccccc12` [CBK287436], for which the viability at 28.5 h, 10 µM amounted to 99.8%.

For the compound `COc1cccc(C(=O)Nc2cc(C)c3c(=O)oc4ccccc4c3n2)c1OC` [CBK287437], the viability at 28.5 h, 10 µM came out at 106%.

For the compound `Cc1cc(NC(=O)c2cccs2)nc2c1c(=O)oc1ccccc12` [CBK287439], the viability at 28.5 h, 10 µM is 91.8%.

Consider `Cc1cc(NC(=O)C(C)C)nc2c1c(=O)oc1ccccc12` [CBK287441], for which the viability at 28.5 h, 10 µM is 89.7%.

Regarding `COc1ccc(C(=O)Nc2cc(C)c3c(=O)oc4ccccc4c3n2)cc1OC` [CBK287442], the viability at 28.5 h, 10 µM was 89%.

Regarding `Cc1cc(NC(=O)CC(C)(C)C)nc2c1c(=O)oc1ccccc12` [CBK287444], the viability at 28.5 h, 10 µM was 101%.

For the compound `Cc1cc(NC(=O)c2cc3ccccc3oc2=O)nc2c1c(=O)oc1ccccc12` [CBK287445], the viability at 28.5 h, 10 µM stood at 100%.

Regarding `Cc1ccccc1NC(=O)c1cnc2sccn2c1=O` [CBK287447], the viability at 28.5 h, 10 µM was 74.9%.

Turning to `O=C(Nc1ccc(Cl)c(Cl)c1)c1cnc2sccn2c1=O` [CBK287449], the viability at 28.5 h, 10 µM was 83.3%.

On to `Cc1ccc(C)c(NC(=O)c2cnc3sccn3c2=O)c1` [CBK287451], for which the viability at 28.5 h, 10 µM came to 85.1%.

Take `CCN(C(=O)c1cnc2scc(C)n2c1=O)c1ccccc1` [CBK287452]: the viability at 28.5 h, 10 µM amounted to 105%.

Consider `Cc1ccc(NC(=O)c2cnc3scc(C)n3c2=O)cc1` [CBK287454], for which the viability at 28.5 h, 10 µM worked out at 107%.

Regarding `Cc1csc2ncc(C(=O)Nc3ccc(OC(F)(F)F)cc3)c(=O)n12` [CBK287457], the viability at 28.5 h, 10 µM came to 108%.

For the origin of these results see PMC12040169 (PLOS Biology, 2025).
